Experimental data published in the NIST ThermoML archive (doi:10.1016/j.fluid.2013.05.012).
Where “and” joins values, the source holds several entries; their conditions need not be identical. Identical values can stand only once. ± gives the expanded uncertainty stated by the source.

Conditions: 101.33 kPa, Liquid; for viscosity: Vibrating wire viscometry; for mass density: Vibrating tube method

CCOS(=O)(=O)[O-].CC[n+]1cccc(C)c1 [1-ethyl-3-methylpyridinium ethylsulfate]
Conditions	mass density	viscosity [mPa·s]
293.13 K	–	181.5 ± 5.2
293.15 K	1225.08 ± 1.1 kg/m3	–
293.16 K	1225.08 ± 1.1 kg/m3	–
295.64 K	1223.43 ± 1.1 kg/m3	–
295.65 K	1223.43 ± 1.1 kg/m3	–
298.15 K	1221.79 ± 1.1 kg/m3	–
298.16 K	1221.8 ± 1.1 kg/m3	–
298.18 K	–	133.7 ± 3.4
298.2 K	–	133.8 ± 3.5
300.65 K	1220.15 ± 1.1 kg/m3	–
300.66 K	1220.15 ± 1.1 kg/m3	–
303.13 K	–	102.1 ± 2.4
303.14 K	1218.51 ± 1.1 kg/m3	–
303.15 K	1218.5 ± 1.1 kg/m3	–
305.64 K	1216.85 ± 1.1 kg/m3	–
305.65 K	1216.85 ± 1.1 kg/m3	–
308.15 K	1215.21 ± 1.1 kg/m3 and 1215.2 ± 1.1 kg/m3	–
308.16 K	–	79.18 ± 1.7
310.65 K	1213.56 ± 1.1 kg/m3	–
310.66 K	1213.56 ± 1.1 kg/m3	–
313.14 K	–	62.73 ± 1.3
313.15 K	1211.91 ± 1.1 kg/m3	–
315.65 K	1210.27 ± 1.1 kg/m3	–
315.66 K	1210.27 ± 1.1 kg/m3	–
318.08 K	–	50.65 ± 1.1
318.15 K	1208.63 ± 1.1 kg/m3 and 1208.64 ± 1.1 kg/m3	–
320.65 K	1207 ± 1.1 kg/m3	–

CCCCCC[n+]1ccn(C)c1.O=S(=O)([N-]S(=O)(=O)C(F)(F)F)C(F)(F)F
Conditions	mass density [kg/m3]	viscosity
288.15 K	1381.24 ± 1.1	–
293.14 K	–	90.27 ± 2.1 mPa·s
293.16 K	1376.63 ± 1.1	–
298.16 K	1372.04 ± 1.1	–
298.18 K	–	70.9 ± 1.5 mPa·s and 70.95 ± 1.5 mPa·s
303.13 K	–	56.93 ± 1.2 mPa·s
303.15 K	1367.46 ± 1.1	–
303.16 K	1367.45 ± 1.1	–
308.13 K	–	46.15 ± 0.97 mPa·s
308.16 K	1362.88 ± 1.1	–
313.09 K	–	38.05 ± 0.8 mPa·s
313.15 K	1358.32 ± 1.1	–
318.1 K	–	31.74 ± 0.67 mPa·s
318.15 K	1353.76 ± 1.1	–
318.16 K	1353.77 ± 1.1	–
323.1 K	–	26.73 ± 0.56 mPa·s
323.15 K	1349.23 ± 1.1	–
323.16 K	1349.24 ± 1.1	–
328.15 K	1344.72 ± 1.1	–

CCOS(=O)(=O)[O-].CCn1cc[n+](C)c1 [1-ethyl-3-methylimidazolium ethyl sulfate]
Conditions	mass density	viscosity [mPa·s]
288.15 K	1245.23 ± 1.1 kg/m3	–
288.16 K	1245.23 ± 1.1 kg/m3	–
290.64 K	1243.55 ± 1.1 kg/m3	–
290.65 K	1243.55 ± 1.1 kg/m3	–
293.14 K	1241.85 ± 1.1 kg/m3	128.2 ± 3.2
293.15 K	1241.85 ± 1.1 kg/m3	–
295.65 K	1240.17 ± 1.1 kg/m3 and 1240.15 ± 1.1 kg/m3	–
298.15 K	1238.47 ± 1.1 kg/m3 and 1238.45 ± 1.1 kg/m3	–
298.19 K	–	98.87 ± 2.3
298.2 K	–	98.63 ± 2.3
300.65 K	1236.77 ± 1.1 kg/m3 and 1236.76 ± 1.1 kg/m3	–
303.15 K	1235.08 ± 1.1 kg/m3 and 1235.06 ± 1.1 kg/m3	–
303.16 K	–	77.83 ± 1.7
305.65 K	1233.38 ± 1.1 kg/m3	–
308.15 K	1231.69 ± 1.1 kg/m3	–
308.19 K	–	62.54 ± 1.3
310.64 K	1230.01 ± 1.1 kg/m3	–
310.65 K	1230.01 ± 1.1 kg/m3	–
313.14 K	1228.32 ± 1.1 kg/m3	51.1 ± 1.1
315.65 K	1226.63 ± 1.1 kg/m3 and 1226.64 ± 1.1 kg/m3	–
318.14 K	–	42.22 ± 0.89
318.15 K	1224.95 ± 1.1 kg/m3	–
320.64 K	1223.27 ± 1.1 kg/m3 and 1223.28 ± 1.1 kg/m3	–
323.1 K	–	35.37 ± 0.74
323.14 K	1221.6 ± 1.1 kg/m3	–
323.15 K	1221.6 ± 1.1 kg/m3	–
325.64 K	1219.92 ± 1.1 kg/m3	–
325.65 K	1219.92 ± 1.1 kg/m3	–
328.15 K	1218.26 ± 1.1 kg/m3	–
